Values quoted from earlier work in paper PMC6986806 (Nature chemical biology, 2020).

Tested on: GluN1/GluN2D

For `COc1ccc(OCC2c3cc(OC)c(OC)cc3CCN2C(=O)c2cccc(Cl)c2)cc1` (stereo not shown) [CIQ], which “effect on GluN1/GluN2D unitary current” value is on record?
Its value is “no effect”.
